Measured values: patent US20090169700A1, “Healthy Food Product” (priority 2006, published 2009)
Ends that are not written are not given here.

Assay: Water solubility at 20° C. and pH 6.5 (turbid appearance, 10 mg peptide in 10 ml de-mineralised water)
Assay type: physicochemical

| Compound | Peptide category (water solubility) |
| --- | --- |
| C[C@H](N)C(=O)N[C@@H](C)C(=O)N[C@@H](C)C(=O)N[C@@H](C)C(=O)N[C@@H](C)C(=O)N[C@@H](C)C(=O)O [AAAAAA] | Insoluble peptides |
| AAAAAAAA [AAAAAAAA] | Insoluble peptides |
| DDDDDD [DDDDDD] | Soluble peptides |
| EAEWEY [EAEWEY] | Soluble peptides |
| GSGGSG [GSGGSG] | Soluble peptides |
| LLLLLL [LLLLLL] | Insoluble peptides |
| VEWEME [VEWEME] | Soluble peptides |
